This note sets out measurements from ChEMBL document CHEMBL2346648, “A series of thiazole derivatives bearing thiazolidin-4-one as non-competitive ADAMTS-5 (aggrecanase-2) inhibitors” (Bioorg Med Chem Lett, 2013).

Each structure is given as a SMILES string.

Assay [1] deals with T1, A disintegrin and metalloproteinase with thrombospondin motifs 5 (Bos taurus, UniProt Q9TT92).
T1 sequence (Q9TT92 whole entry): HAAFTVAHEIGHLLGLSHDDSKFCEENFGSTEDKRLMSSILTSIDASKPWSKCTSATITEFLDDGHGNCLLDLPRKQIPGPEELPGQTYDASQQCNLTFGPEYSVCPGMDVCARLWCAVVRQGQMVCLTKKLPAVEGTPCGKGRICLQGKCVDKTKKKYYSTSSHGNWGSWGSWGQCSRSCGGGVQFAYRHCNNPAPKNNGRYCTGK
The assay is described as follows: Ex vivo inhibition of ADAMTS-5-mediated aggrecan degradation in IL-1-stimulated bovine cartilage explant.

Assay [2] deals with Disintegrin and metalloproteinase domain-containing protein 17 (Homo sapiens, UniProt P78536). Kind of assay: Inhibition of TACE (unknown origin).
Chain of Disintegrin and metalloproteinase domain-containing protein 17 (P78536 whole entry, the tested form may be a part): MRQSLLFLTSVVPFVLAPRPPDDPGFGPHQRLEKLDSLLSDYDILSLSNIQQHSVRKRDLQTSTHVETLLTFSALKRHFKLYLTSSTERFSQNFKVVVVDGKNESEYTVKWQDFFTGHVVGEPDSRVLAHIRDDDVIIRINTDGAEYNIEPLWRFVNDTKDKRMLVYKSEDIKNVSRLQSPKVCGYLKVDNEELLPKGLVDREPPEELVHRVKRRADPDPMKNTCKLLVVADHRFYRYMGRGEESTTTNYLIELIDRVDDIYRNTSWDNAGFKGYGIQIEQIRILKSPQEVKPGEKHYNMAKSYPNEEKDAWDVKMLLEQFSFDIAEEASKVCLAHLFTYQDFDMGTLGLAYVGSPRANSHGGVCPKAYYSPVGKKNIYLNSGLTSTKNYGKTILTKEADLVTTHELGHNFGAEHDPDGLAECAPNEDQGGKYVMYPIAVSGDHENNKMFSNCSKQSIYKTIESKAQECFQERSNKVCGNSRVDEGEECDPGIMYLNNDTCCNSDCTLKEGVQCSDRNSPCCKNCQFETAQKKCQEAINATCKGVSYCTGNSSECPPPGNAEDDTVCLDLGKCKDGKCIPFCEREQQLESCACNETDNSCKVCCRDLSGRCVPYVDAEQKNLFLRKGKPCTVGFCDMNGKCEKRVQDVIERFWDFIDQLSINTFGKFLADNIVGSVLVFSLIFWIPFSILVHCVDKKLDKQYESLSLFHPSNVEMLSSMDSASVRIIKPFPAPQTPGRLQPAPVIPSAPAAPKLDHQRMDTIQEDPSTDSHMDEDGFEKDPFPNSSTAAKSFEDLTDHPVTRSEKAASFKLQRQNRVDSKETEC
Assay [3] has as its target T2, A disintegrin and metalloproteinase with thrombospondin motifs 13 (Homo sapiens, UniProt Q76LX8).
T2 sequence (Q76LX8 whole entry): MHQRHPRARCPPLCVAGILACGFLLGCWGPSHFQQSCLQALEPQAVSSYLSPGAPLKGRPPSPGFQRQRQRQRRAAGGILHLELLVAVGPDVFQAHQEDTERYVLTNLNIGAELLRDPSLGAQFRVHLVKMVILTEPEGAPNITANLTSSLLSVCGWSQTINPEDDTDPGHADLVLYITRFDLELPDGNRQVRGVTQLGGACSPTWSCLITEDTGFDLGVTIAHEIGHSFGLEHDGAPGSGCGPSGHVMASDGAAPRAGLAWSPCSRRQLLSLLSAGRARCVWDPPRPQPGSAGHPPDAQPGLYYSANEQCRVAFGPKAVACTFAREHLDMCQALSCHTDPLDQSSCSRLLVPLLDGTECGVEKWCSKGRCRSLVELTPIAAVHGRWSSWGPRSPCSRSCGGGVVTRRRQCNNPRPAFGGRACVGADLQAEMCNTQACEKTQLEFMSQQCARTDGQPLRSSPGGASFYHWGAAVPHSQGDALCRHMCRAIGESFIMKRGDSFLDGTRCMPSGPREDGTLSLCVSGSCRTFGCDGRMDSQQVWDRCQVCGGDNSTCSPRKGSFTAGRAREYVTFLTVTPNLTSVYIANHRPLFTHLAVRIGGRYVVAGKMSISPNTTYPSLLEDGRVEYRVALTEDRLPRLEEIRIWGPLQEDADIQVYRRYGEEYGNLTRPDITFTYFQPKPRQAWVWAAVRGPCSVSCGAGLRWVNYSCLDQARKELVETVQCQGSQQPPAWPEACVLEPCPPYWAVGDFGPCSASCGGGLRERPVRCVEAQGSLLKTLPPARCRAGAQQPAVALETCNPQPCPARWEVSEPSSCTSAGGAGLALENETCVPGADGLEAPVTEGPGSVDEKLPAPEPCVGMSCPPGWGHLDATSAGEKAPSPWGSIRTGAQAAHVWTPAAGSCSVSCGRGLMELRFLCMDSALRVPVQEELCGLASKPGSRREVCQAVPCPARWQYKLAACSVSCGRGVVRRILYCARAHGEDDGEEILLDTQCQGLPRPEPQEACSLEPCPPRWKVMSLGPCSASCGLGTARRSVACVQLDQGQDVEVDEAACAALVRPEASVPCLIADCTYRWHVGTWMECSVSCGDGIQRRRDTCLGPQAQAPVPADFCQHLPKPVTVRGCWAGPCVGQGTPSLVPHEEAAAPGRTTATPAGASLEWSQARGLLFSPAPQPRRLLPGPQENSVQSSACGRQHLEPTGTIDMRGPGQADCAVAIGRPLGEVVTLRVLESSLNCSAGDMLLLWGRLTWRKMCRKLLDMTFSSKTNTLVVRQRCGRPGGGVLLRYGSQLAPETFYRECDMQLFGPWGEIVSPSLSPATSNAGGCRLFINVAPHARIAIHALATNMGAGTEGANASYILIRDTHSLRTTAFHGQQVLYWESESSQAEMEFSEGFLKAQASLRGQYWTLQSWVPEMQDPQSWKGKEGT
The assay is described as follows: Inhibition of ADAMTS-13 (unknown origin).

In general, IC50 refers to the midpoint of a concentration-inhibition curve. On to `O=C(O)CCc1sc(/C=C2\NC(=O)CS2)nc1-c1ccccn1`, for which the IC50 is 22 µM in assay [1], over 30 µM in assay [2] and 20 µM in assay [3].
